Each structure is given as a SMILES string.

Here are results for 2 molecules from patent US20050037097A1, “PYRUVATE ENRICHED ONION EXTRACT” (priority 2003, published 2005).

The nature of data set [1]: Inhibition (%) of ABTS radical generation. The data set is classed as biochemical. Conditions: concentration was 0.005 mg/mL (footnote). The protocol:
All reagents used in this assay were prepared in phosphate buffered saline (PBS, 10 mM, pH 7.4). Sample solutions were prepared in PBS.
[…] Reaction was triggered by the addition of 120 μL of 10 mM hydrogen peroxide. Absorbance data of the reaction mixture were recorded after 10 min using a spectrophotometer set at 734 nm. Quercetin was used as a reference antioxidant.

A short description of data set [2]: Total reducing power (pre-formed ABTS radical). The data set is classed as biochemical. Conditions: concentration was 0.005 mg/mL (footnote). The protocol: ABTS radical was generated by mixing 5 mL of an aqueous ABTS solution (7 mM) and 88 μL of a potassium persulfate solution (140 mM), followed by the standing in the dark for 6 h. This stock solution (1.1 mL) was diluted to 90 mL with PBS (pH 7.4) and the absorbance adjusted to 0.83. […] Absorbance at 734 nm was measured after 10 min. Quercetin was used as a reference antioxidant. Total reducing power (TRP, %) was calculated using the following equations: […]+PBS(%)=[(Abs0 min-Abs10 min)/Abs0 min]*100 TRPSample=([…]

Data set [3] can be described thus: Oxygen radical absorbance capacity (ORAC), β-carotene retention. The format is biochemical. Conditions: concentration was 0.005 mg/mL (footnote); PBS control 28.
Protocol: A solution of 2,2′-azobis-(2-amidinopropane) dihydrochloride (AAPH, 0.5 M) was prepared in degassed distilled water and a β-carotene solution was prepared by centrifuging 10 mg of β-carotene in 10 mL of acetone followed by a one-fold dilution of the supernatant with the same solvent. β-carotene (60 μL) and 0.6% (w/v) phosphate buffered Tween 20 containing 0.3% (w/v) of linoleic acid (120 μL) were mixed with 935 μL of PBS in a quartz cuvette and incubated for 2 min at 50° C. 10 μL of sample solution (final assay concentration of 454 μg/mL) and AAPH (25 μL) were added into the cuvette and the reaction was monitored for 10 min using a spectrophotometer set at 452 nm. Quercetin was used as a reference antioxidant. Cuvette was maintained at 50° C. all times except when the measurement is being taken. Percentage β-carotene retention was calculated using the following equation: % β-carotene retention=100−[(Abs0 min−Abs5 min)*100 Abs0 min]
Data set [4] can be described thus: Stability determination of pyruvate (pyruvate loss with or without hydrogen peroxide). The format is physicochemical.

As for `O=c1c(O)c(-c2ccc(O)c(O)c2)oc2cc(O)cc(O)c12` [Quercetin], the “% inhibition of ABTS radical generation” value in data set [1] is on record as 23%. For the same molecule, the “% TRP (total reducing power)” value in data set [2] stood at 30%. Further, the “% TRP (ORAC in terms of β-Carotene retention)” value in data set [3] is recorded as 55%.

With `CC(=O)C(=O)O` [pyruvic acid], the pyruvate loss in data set [4] (with added hydrogen peroxide) is listed as 11%; in data set [4] (without added hydrogen peroxide) it was 26%.
